Our source for the EC50 values is patent US20200325127A1, “PYRIDIN-3-YL ACETIC ACID DERIVATIVES AS INHIBITORS OF HUMAN IMMUNODEFICIENCY VIRUS REPLICATION” (priority 2016, published 2020).

One experiment deals with NL-RLuc virus. The experiment in a line: Inhibition of HIV replication (NL-RLuc luciferase reporter virus in MT-2 cells). It counts as cell-based. To be noted: Human immunodeficiency virus 1, MT2, 120 h, read-out: Activity. An excerpt: Inhibition of HIV replication: A recombinant NL-RLuc proviral clone was constructed in which a section of the nef gene from NL4-3 was replaced with the Renilla Luciferase gene. This virus is fully infectious and can undergo multiple cycles of replication in cell culture. In addition, the luciferous reporter provides a simple and easy method for quantitating the extent of virus growth and consequently, the antiviral activity of test compounds. The plasmid pNLRLuc contains the proviral NL-Rluc DNA cloned into pUC18 at the PvuII site. The NL-RLuc virus was prepared by transfection of 293T cells with the plasmid pNLRLuc. Transfections were performed using the LipofectAMINE PLUS kit from Invitrogen (Carlsbad, Calif.) according to the manufacturer and the virus generated was titered in MT-2 cells. For susceptibility analyses, the titrated virus was used to infect MT-2 cells in the presence of compound, and after 5 days of incubation, cells were processed and quantitated for virus growth by the amount of expressed luciferase. Assay media was RPMI 1640 supplemented with 10% heat inactivated fetal bovine serum (FBS), 100 units/ml penicillin G/100 units/ml streptomycin, 10 mM HEPES buffer pH 7.55 and 2 mM L-glutamine. The results from at least 2 experiments were used to calculate the EC50 values. Luciferase was quantitated using the Dual Luciferase kit from Promega (Madison, Wis.). Susceptibility of viruses to compounds was determined by incubation in the presence of serial dilutions of the compound. The 50% effective concentration (EC50) was calculated by using the exponential form of the median effect equation where (Fa)=1/[1+(ED50/drug conc.)^m](Johnson V A, Byington R T. Infectivity Assay. In Techniques in HIV Research. ed. Aldovini A, Walker B D. 71-76. New York: Stockton Press. 1990). Activity equal to A refers to a compound having an EC50≤100 nM, while B and C denote compounds having an EC50 between 100 nM and 1 uM (B) or >1 uM (C).
Consider `Cc1nc(C)c([C@H](OC(C)(C)C)C(=O)O)c(N2CCC(C)(C)CC2)c1-c1ccc2c(c1)CCN(c1ncnc(Cl)c1N)C2` [Compound 54], for which the EC50 was less than 0.1 µM.
Consider `Cc1nc(C)c([C@H](OC(C)(C)C)C(=O)O)c(N2CCC(C)(C)CC2)c1-c1ccc2c(c1)CCN(c1cc(Cl)cnn1)C2` [Compound 28], for which the EC50 was less than 0.1 µM.
The same measure, in the same setting: with `Cc1nc(C)c([C@H](OC(C)(C)C)C(=O)O)c(N2CCC(C)(C)CC2)c1-c1ccc2c(c1)CCN(c1ccnc(C(F)(F)F)n1)C2` [Compound 60] the figure was less than 0.1 µM; with `Cc1nc(C)c([C@H](OC(C)(C)C)C(=O)O)c(N2CCC(C)(C)CC2)c1-c1ccc2c(c1)CCN(c1ccncn1)C2` [Compound 20], less than 0.1 µM.
Regarding `COc1ccnc(N2CCc3cc(-c4c(C)nc(C)c([C@H](OC(C)(C)C)C(=O)O)c4N4CCC(C)(C)CC4)ccc3C2)n1` [Compound 12], the EC50 was less than 0.1 µM.
Same read-out and setting: with `Cc1nc(C)c([C@H](OC(C)(C)C)C(=O)O)c(N2CCC(C)(C)CC2)c1-c1ccc2c(c1)CCN(c1ncccn1)C2` [Compound 18] the figure was less than 0.1 µM; with `COc1cnc(SC)nc1N1CCc2cc(-c3c(C)nc(C)c([C@H](OC(C)(C)C)C(=O)O)c3N3CCC(C)(C)CC3)ccc2C1` [Compound 57], less than 0.1 µM.
As to `Cc1nc(C)c([C@H](OC(C)(C)C)C(=O)O)c(N2CCC(C)(C)CC2)c1-c1ccc2c(c1)CCN(c1nccc(-c3ccccc3)n1)C2` [Compound 8], the EC50 was less than 0.1 µM.
Same read-out and setting: as for `Cc1cc(N2CCc3cc(-c4c(C)nc(C)c([C@H](OC(C)(C)C)C(=O)O)c4N4CCC(C)(C)CC4)ccc3C2)ncn1` [Compound 19], the figure is less than 0.1 µM; as for `Cc1cc(N2CCc3cc(-c4c(C)nc(C)c([C@H](OC(C)(C)C)C(=O)O)c4N4CCC(C)(C)CC4)ccc3C2)nc(C(C)C)n1` [Compound 44], less than 0.1 µM; as for `Cc1cc(N2CCc3cc(-c4c(C)nc(C)c([C@H](OC(C)(C)C)C(=O)O)c4N4CCC(C)(C)CC4)ccc3C2)nc(C)n1` [Compound 29], less than 0.1 µM.
Turning to `Cc1cnc(N2CCc3cc(-c4c(C)nc(C)c([C@H](OC(C)(C)C)C(=O)O)c4N4CCC(C)(C)CC4)ccc3C2)nc1` [Compound 17], the EC50 is less than 0.1 µM.
For `Cc1ccnc(N2CCc3cc(-c4c(C)nc(C)c([C@H](OC(C)(C)C)C(=O)O)c4N4CCC(C)(C)CC4)ccc3C2)n1` [Compound 30], the EC50 is less than 0.1 µM.
The same measure, in the same setting: with `CSc1nccc(N2CCc3cc(-c4c(C)nc(C)c([C@H](OC(C)(C)C)C(=O)O)c4N4CCC(C)(C)CC4)ccc3C2)n1` [Compound 39] the figure was less than 0.1 µM.
Take `Cc1nc(C)c([C@H](OC(C)(C)C)C(=O)O)c(N2CCC(C)(C)CC2)c1-c1ccc2c(c1)CCN(c1cc(O)nc(N)n1)C2` [Compound 66]: the EC50 was 0.1 to 1 µM.
With `Cc1nc(C)c([C@H](OC(C)(C)C)C(=O)O)c(N2CCC(C)(C)CC2)c1-c1ccc2c(c1)CCN(c1ncnc3c1CCC3)C2` [Compound 52], the EC50 was less than 0.1 µM.
Turning to `COc1cnc(N2CCc3cc(-c4c(C)nc(C)c([C@H](OC(C)(C)C)C(=O)O)c4N4CCC(C)(C)CC4)ccc3C2)nc1` [Compound 34], the EC50 was less than 0.1 µM.
In the case of `Cc1nc(C)c([C@H](OC(C)(C)C)C(=O)O)c(N2CCC(C)(C)CC2)c1-c1ccc2c(c1)CCN(c1cc(-n3ccnc3)ncn1)C2` [Compound 49], the EC50 was less than 0.1 µM.
Regarding `COc1ncnc(N2CCc3cc(-c4c(C)nc(C)c([C@H](OC(C)(C)C)C(=O)O)c4N4CCC(C)(C)CC4)ccc3C2)c1C` [Compound 50], the EC50 was less than 0.1 µM.
The same measure, in the same setting: with `Cc1nc(NC(C)(C)C)cc(N2CCc3cc(-c4c(C)nc(C)c([C@H](OC(C)(C)C)C(=O)O)c4N4CCC(C)(C)CC4)ccc3C2)n1` [Compound 64] the figure was less than 0.1 µM; with `COc1ccc(N2CCc3cc(-c4c(C)nc(C)c([C@H](OC(C)(C)C)C(=O)O)c4N4CCC(C)(C)CC4)ccc3C2)nn1` [Compound 47], less than 0.1 µM; with `Cc1nc(C)c([C@H](OC(C)(C)C)C(=O)O)c(N2CCC(C)(C)CC2)c1-c1ccc2c(c1)CCN(c1ncncc1F)C2` [Compound 25], less than 0.1 µM.
On the same count and under the same terms, as for `Cc1nc(C)c([C@H](OC(C)(C)C)C(=O)O)c(N2CCC(C)(C)CC2)c1-c1ccc2c(c1)CCN(c1nc(-c3ccccc3)cs1)C2` [Compound 3], the figure is less than 0.1 µM; as for `Cc1nc(O)cc(N2CCc3cc(-c4c(C)nc(C)c([C@H](OC(C)(C)C)C(=O)O)c4N4CCC(C)(C)CC4)ccc3C2)n1` [Compound 65], 0.1 to 1 µM; as for `Cc1nc(C)c([C@H](OC(C)(C)C)C(=O)O)c(N2CCC(C)(C)CC2)c1-c1ccc2c(c1)CCN(c1ccnc(C3CC3)n1)C2` [Compound 59], less than 0.1 µM.
On the same count and under the same terms, as for `Cc1nc(C)c([C@H](OC(C)(C)C)C(=O)O)c(N2CCC(C)(C)CC2)c1-c1ccc2c(c1)CCN(c1ncc(C#N)cn1)C2` [Compound 22], the figure is 0.1 to 1 µM.
With `COCc1cc(N2CCc3cc(-c4c(C)nc(C)c([C@H](OC(C)(C)C)C(=O)O)c4N4CCC(C)(C)CC4)ccc3C2)ncn1` [Compound 51], the EC50 was less than 0.1 µM.
Still for that read-out and setting: as for `Cc1nc(C)c([C@H](OC(C)(C)C)C(=O)O)c(N2CCC(C)(C)CC2)c1-c1ccc2c(c1)CCN(c1cc(Nc3ccccc3)ncn1)C2` [Compound 53], the figure is less than 0.1 µM; as for `CCc1cnc(N2CCc3cc(-c4c(C)nc(C)c([C@H](OC(C)(C)C)C(=O)O)c4N4CCC(C)(C)CC4)ccc3C2)nc1` [Compound 33], less than 0.1 µM.

Still in this experiment, the particulars now being: Human immunodeficiency virus 1, MT2, 120 h, read-out: EC50 μM.
Consider `Cc1nc(C)c([C@H](OC(C)(C)C)C(=O)O)c(N2CCC(C)(C)CC2)c1-c1ccc2c(c1)CCN(c1ccncn1)C2` [Compound 20], for which the EC50 worked out at 0.002 µM.
Same read-out and setting: as for `Cc1nc(C)c([C@H](OC(C)(C)C)C(=O)O)c(N2CCC(C)(C)CC2)c1-c1ccc2c(c1)CCN(c1ncnc3cc(Cl)ccc13)C2` [Compound 89], the figure is 0.004 µM; as for `Cc1nc(C)c([C@H](OC(C)(C)C)C(=O)O)c(N2CCC(C)(C)CC2)c1-c1ccc2c(c1)CCN(c1cnc3ccccc3n1)C2` [Compound 71], 0.01 µM.
Same read-out and setting: as for `Cc1nc(C)c([C@H](OC(C)(C)C)C(=O)O)c(N2CCC(C)(C)CC2)c1-c1ccc2c(c1)CCN(c1ncc3cc(F)ccc3n1)C2` [Compound 75], the figure is 0.003 µM; as for `COc1cc2ncnc(N3CCc4cc(-c5c(C)nc(C)c([C@H](OC(C)(C)C)C(=O)O)c5N5CCC(C)(C)CC5)ccc4C3)c2cc1OC` [Compound 84], 0.002 µM.
For `Cc1nc(C)c([C@H](OC(C)(C)C)C(=O)O)c(N2CCC(C)(C)CC2)c1-c1ccc2c(c1)CCN(c1nc(N(C)C)c3ccccc3n1)C2` [Compound 82], the EC50 amounted to 0.001 µM.
Same read-out and setting: as for `Cc1cc(N2CCc3cc(-c4c(C)nc(C)c([C@H](OC(C)(C)C)C(=O)O)c4N4CCC(C)(C)CC4)ccc3C2)nc(C)n1` [Compound 29], the figure is 0.004 µM.
The same measure, in the same setting: with `Cc1nc(C)c([C@H](OC(C)(C)C)C(=O)O)c(N2CCC(C)(C)CC2)c1-c1ccc2c(c1)CCN(c1cc(O)nc(N)n1)C2` [Compound 66] the figure was 0.32 µM; with `Cc1nc2ccccc2nc1N1CCc2cc(-c3c(C)nc(C)c([C@H](OC(C)(C)C)C(=O)O)c3N3CCC(C)(C)CC3)ccc2C1` [Compound 87], 0.01 µM; with `Cc1nc(C)c([C@H](OC(C)(C)C)C(=O)O)c(N2CCC(C)(C)CC2)c1-c1ccc2c(c1)CCN(c1nc(C(F)(F)F)cc3ccccc13)C2` [Compound 79], 0.007 µM.
The same measure, in the same setting: as for `Cc1nc(C)c([C@H](OC(C)(C)C)C(=O)O)c(N2CCC(C)(C)CC2)c1-c1ccc2c(c1)CCN(c1nccc3ccccc13)C2` [Compound 78], the figure is 0.003 µM; as for `Cc1nc(C)c([C@H](OC(C)(C)C)C(=O)O)c(N2CCC(C)(C)CC2)c1-c1ccc2c(c1)CCN(c1ncc3cc(Br)ccc3n1)C2` [Compound 72], 0.004 µM.
